Measured values published in ChEMBL document CHEMBL5046255, “Design and synthesis of dual inhibitors targeting snail and histone deacetylase for the treatment of solid tumour cancer” (Eur J Med Chem, 2022).
Activity calls are given as the source filed them. No cut-off for these calls is given here.

Experiments:
Histone deacetylase 1 = Histone deacetylase 1 (Homo sapiens, UniProt Q13547); assay: Inhibition of HDAC1 (unknown origin) using p53 (379 to 382 residues) (RHKK(Ac-AMC) as fluorogenic substrate incubated for 1 hrs by fluorescence based assay
Sequence of Histone deacetylase 1 (Q13547 whole entry, the tested form may be a part): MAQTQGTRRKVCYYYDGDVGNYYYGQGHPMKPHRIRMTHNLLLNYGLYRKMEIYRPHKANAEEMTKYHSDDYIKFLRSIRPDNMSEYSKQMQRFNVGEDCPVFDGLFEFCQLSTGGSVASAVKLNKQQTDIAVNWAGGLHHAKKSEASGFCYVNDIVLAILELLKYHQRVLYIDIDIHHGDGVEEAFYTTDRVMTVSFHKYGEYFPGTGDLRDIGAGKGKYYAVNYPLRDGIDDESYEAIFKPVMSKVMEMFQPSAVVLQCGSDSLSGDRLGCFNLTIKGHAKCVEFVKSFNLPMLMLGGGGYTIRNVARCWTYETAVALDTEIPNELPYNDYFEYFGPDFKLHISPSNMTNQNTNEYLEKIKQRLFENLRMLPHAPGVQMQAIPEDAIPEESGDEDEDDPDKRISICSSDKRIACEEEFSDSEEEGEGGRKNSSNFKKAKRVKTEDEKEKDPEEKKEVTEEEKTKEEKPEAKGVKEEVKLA

HCT-116 [1] = assay: Antiproliferative activity against human HCT-116 cells assessed as cell viability at 1 uM incubated for 72 hrs by luminescence assay; assay type: functional, cell-based; settings: HCT-116, 72 h
[2] = Binding affinity to SNAI1 (unknown origin) assessed as dissociation constant; design: species or system Homo sapiens
CCRF-CEM = assay: Antiproliferative activity against human CCRF-CEM cells assessed as growth inhibition incubated for 72 hrs by luminescence assay; assay type: functional
HL-60 = assay: Antiproliferative activity against human HL-60 cells assessed as growth inhibition incubated for 72 hrs by luminescence assay; assay type: functional
K562 = assay: Antiproliferative activity against human K562 cells assessed as growth inhibition incubated for 72 hrs by luminescence assay; assay type: functional
MOLT-4 = assay: Antiproliferative activity against human MOLT-4 cells assessed as growth inhibition incubated for 72 hrs by luminescence assay; assay type: functional
RPMI-8226 = assay: Antiproliferative activity against human RPMI-8226 cells assessed as growth inhibition incubated for 72 hrs by luminescence assay; assay type: functional
SR = assay: Antiproliferative activity against human SR cells assessed as growth inhibition incubated for 72 hrs by luminescence assay; assay type: functional
HOP-62 = assay: Antiproliferative activity against human HOP-62 cells assessed as growth inhibition incubated for 72 hrs by luminescence assay; assay type: functional
HOP-92 = assay: Antiproliferative activity against human HOP-92 cells assessed as growth inhibition incubated for 72 hrs by luminescence assay; assay type: functional
NCI-H226 = assay: Antiproliferative activity against human NCI-H226 cells assessed as growth inhibition incubated for 72 hrs by luminescence assay; assay type: functional
NCI-H460 = assay: Antiproliferative activity against human NCI-H460 cells assessed as growth inhibition incubated for 72 hrs by luminescence assay; assay type: functional
HCT-15 = assay: Antiproliferative activity against human HCT-15 cells assessed as growth inhibition incubated for 72 hrs by luminescence assay; assay type: functional
HT-29 = assay: Antiproliferative activity against human HT-29 cells assessed as growth inhibition incubated for 72 hrs by luminescence assay; assay type: functional
SW-620 = assay: Antiproliferative activity against human SW-620 cells assessed as growth inhibition incubated for 72 hrs by luminescence assay; assay type: functional
SNB-75 = assay: Antiproliferative activity against human SNB-75 cells assessed as growth inhibition incubated for 72 hrs by luminescence assay; assay type: functional
PC-3 = assay: Antiproliferative activity against human PC-3 cells assessed as growth inhibition incubated for 72 hrs by luminescence assay; assay type: functional
LOX IMVI = assay: Antiproliferative activity against human LOX IMVI cells assessed as growth inhibition incubated for 72 hrs by luminescence assay; assay type: functional
MDA-MB-435 = assay: Antiproliferative activity against human MDA-MB-435 cells assessed as growth inhibition incubated for 72 hrs by luminescence assay; assay type: functional
SK-MEL-2 = assay: Antiproliferative activity against human SK-MEL-2 cells assessed as growth inhibition incubated for 72 hrs by luminescence assay; assay type: functional
SK-MEL-5 = assay: Antiproliferative activity against human SK-MEL-5 cells assessed as growth inhibition incubated for 72 hrs by luminescence assay; assay type: functional
SK-MEL-28 = assay: Antiproliferative activity against human SK-MEL-28 cells assessed as growth inhibition incubated for 72 hrs by luminescence assay; assay type: functional
IGROV-1 = assay: Antiproliferative activity against human IGROV-1 cells assessed as growth inhibition incubated for 72 hrs by luminescence assay; assay type: functional
OVCAR-5 = assay: Antiproliferative activity against human OVCAR-5 cells assessed as growth inhibition incubated for 72 hrs by luminescence assay; assay type: functional
NCI/ADR-RES = assay: Antiproliferative activity against human NCI/ADR-RES cells assessed as growth inhibition incubated for 72 hrs by luminescence assay; assay type: functional
Hs-578T = assay: Antiproliferative activity against human Hs-578T cells assessed as growth inhibition incubated for 72 hrs by luminescence assay; assay type: functional
MDA-MB-468 = assay: Antiproliferative activity against human MDA-MB-468 cells assessed as growth inhibition incubated for 72 hrs by luminescence assay; assay type: functional
786-0 = assay: Antiproliferative activity against human 786-0 cells assessed as growth inhibition incubated for 72 hrs by luminescence assay; assay type: functional
RXF 393 = assay: Antiproliferative activity against human RXF 393 cells assessed as growth inhibition incubated for 72 hrs by luminescence assay; assay type: functional
SN12C = assay: Antiproliferative activity against human SN12C cells assessed as growth inhibition incubated for 72 hrs by luminescence assay; assay type: functional
UO-31 = assay: Antiproliferative activity against human UO-31 cells assessed as growth inhibition incubated for 72 hrs by luminescence assay; assay type: functional
Histone deacetylase 4 = Histone deacetylase 4 (Homo sapiens, UniProt P56524); assay: Inhibition of HDAC4 (unknown origin) using Boc-Lys(TFA)-AMC as fluorogenic substrate incubated for 30 mins by fluorescence based assay
Sequence of Histone deacetylase 4 (P56524 whole entry): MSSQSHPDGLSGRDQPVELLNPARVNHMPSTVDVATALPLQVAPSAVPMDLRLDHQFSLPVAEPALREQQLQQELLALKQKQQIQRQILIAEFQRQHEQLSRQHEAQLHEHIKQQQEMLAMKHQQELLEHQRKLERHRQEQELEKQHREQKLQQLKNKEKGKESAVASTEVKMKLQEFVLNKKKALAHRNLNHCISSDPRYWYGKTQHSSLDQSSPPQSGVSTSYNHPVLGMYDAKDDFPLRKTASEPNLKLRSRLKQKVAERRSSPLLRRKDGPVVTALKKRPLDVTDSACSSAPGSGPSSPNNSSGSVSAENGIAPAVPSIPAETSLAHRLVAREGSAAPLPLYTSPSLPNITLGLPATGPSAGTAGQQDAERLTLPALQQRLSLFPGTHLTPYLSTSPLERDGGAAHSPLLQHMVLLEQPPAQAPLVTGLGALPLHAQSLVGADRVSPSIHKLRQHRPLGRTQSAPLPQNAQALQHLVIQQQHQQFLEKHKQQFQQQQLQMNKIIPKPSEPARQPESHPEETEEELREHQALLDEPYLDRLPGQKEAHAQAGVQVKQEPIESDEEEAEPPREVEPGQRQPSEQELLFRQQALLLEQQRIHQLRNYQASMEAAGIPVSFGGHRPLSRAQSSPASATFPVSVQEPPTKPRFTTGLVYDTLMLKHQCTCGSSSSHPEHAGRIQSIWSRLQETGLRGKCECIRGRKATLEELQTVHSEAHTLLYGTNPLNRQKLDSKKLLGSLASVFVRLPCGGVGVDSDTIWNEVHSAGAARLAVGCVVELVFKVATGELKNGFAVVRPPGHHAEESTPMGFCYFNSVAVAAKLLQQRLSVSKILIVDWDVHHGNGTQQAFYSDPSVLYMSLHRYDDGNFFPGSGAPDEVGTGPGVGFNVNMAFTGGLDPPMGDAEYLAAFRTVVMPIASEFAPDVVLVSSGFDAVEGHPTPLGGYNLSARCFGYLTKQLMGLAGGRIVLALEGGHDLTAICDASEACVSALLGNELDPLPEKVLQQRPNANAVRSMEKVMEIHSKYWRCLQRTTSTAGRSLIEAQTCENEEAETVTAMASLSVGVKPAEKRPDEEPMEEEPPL

Histone deacetylase 11 = Histone deacetylase 11 (Homo sapiens, UniProt Q96DB2); assay: Inhibition of HDAC11 (unknown origin) using Boc-Lys(TFA)-AMC as fluorogenic substrate incubated for 30 mins by fluorescence based assay
Sequence of Histone deacetylase 11 (Q96DB2 whole entry): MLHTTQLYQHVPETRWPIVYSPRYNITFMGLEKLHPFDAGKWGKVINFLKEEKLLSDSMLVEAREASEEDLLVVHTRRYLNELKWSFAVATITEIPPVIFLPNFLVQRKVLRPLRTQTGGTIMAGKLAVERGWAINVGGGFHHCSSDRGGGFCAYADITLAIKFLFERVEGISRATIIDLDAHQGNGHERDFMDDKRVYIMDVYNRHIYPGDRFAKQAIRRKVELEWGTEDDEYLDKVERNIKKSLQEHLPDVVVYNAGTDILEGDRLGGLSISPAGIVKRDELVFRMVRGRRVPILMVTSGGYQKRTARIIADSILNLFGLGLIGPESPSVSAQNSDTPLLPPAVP

HCT-116 [3] = assay: Effect on SNAI1 protein expression in human HCT-116 cells at 75 nM measured after 24 hrs by western blot analysis; assay type: functional, cell-based
[4] = Metabolic stability in dog liver microsomes assessed as half life incubated for 10 mins by LC-MS/MS analysis; assay type: ADME, Canis lupus familiaris, Microsome
[5] = Metabolic stability in monkey liver microsomes assessed as intrinsic clearance incubated for 10 mins by LC-MS/MS analysis; assay type: ADME, Macaca mulatta, Microsome; settings: rhesus monkey, read-out: CLH
[6] = Metabolic stability in monkey plasma assessed as half life at 100 uM measured upto 120 mins by LC-MS/MS analysis; assay type: ADME, cell-free, Macaca mulatta; settings: rhesus monkey
[7] = Metabolic stability in dog plasma assessed as half life at 100 uM measured upto 120 mins by LC-MS/MS analysis; assay type: ADME, cell-free, Canis lupus familiaris
[8] = Metabolic stability in human plasma assessed as parent compound remaining at 100 uM measured after 2 hrs by LC-MS/MS analysis; assay type: ADME, cell-free; settings: read-out: Stability
[9] = Metabolic stability in monkey plasma assessed as parent compound remaining at 100 uM measured after 2 hrs by LC-MS/MS analysis; assay type: ADME, cell-free, Macaca mulatta; settings: rhesus monkey, read-out: Stability
[10] = Metabolic stability in dog plasma assessed as parent compound remaining at 100 uM measured after 2 hrs by LC-MS/MS analysis; assay type: ADME, cell-free, Canis lupus familiaris; settings: read-out: Stability
[11] = Cmax in Sprague-Dawley rat at 1 mg/kg, iv measured up to 24 hrs by LC-MS/MS analysis; assay type: ADME, organism-based; design: route intravenous, dose 1 mg/kg, time <=24; settings: in vivo
[12] = Tmax in Sprague-Dawley rat at 10 mg/kg, po measured up to 24 hrs by LC-MS/MS analysis; assay type: ADME, organism-based; settings: in vivo
[13] = Oral bioavailability in Sprague-Dawley rat at 10 mg/kg measured up to 24 hrs by LC-MS/MS analysis; assay type: ADME, organism-based; settings: in vivo

For `Cc1cc(Nc2nc(SCc3ccc(C(=O)Nc4ccc(F)cc4N)cc3)nn3cccc23)n[nH]1`, which IC50 (Histone deacetylase 1) is on record?
Its IC50 is 405 nM.

What about the IC50 (HCT-116 [1]) of the same compound?
Its IC50 is 75.1 nM.

And the Kd [2]?
Its Kd is 180 nM.

What about the GI50 (CCRF-CEM) of the same compound?
Its GI50 is 411 nM.

What about the GI50 (HL-60) of the same compound?
Its GI50 is 268 nM.

What about the GI50 (K562) of the same compound?
Its GI50 is 48.7 nM.

What about the GI50 (MOLT-4) of the same compound?
Its GI50 is 508 nM.

What about the GI50 (RPMI-8226) of the same compound?
The GI50 was 514 nM.

What about the GI50 (SR) of the same compound?
The GI50 was 68 nM.

And the GI50 (HOP-62)?
The GI50 was 556 nM.

What about the GI50 (HOP-92) of the same compound?
Its GI50 is 3680 nM.

What about the GI50 (NCI-H226) of the same compound?
Its GI50 is 2700 nM.

And the GI50 (NCI-H460)?
Its GI50 is 395 nM.

What about the GI50 (HCT-15) of the same compound?
The GI50 was 424 nM.

And the GI50 (HT-29)?
Its GI50 is 322 nM.

And the GI50 (SW-620)?
Its GI50 is 426 nM.

What about the GI50 (SNB-75) of the same compound?
The GI50 was 198 nM.

What about the GI50 (PC-3) of the same compound?
The GI50 was 355 nM.

And the GI50 (LOX IMVI)?
The GI50 was 665 nM.

What about the GI50 (MDA-MB-435) of the same compound?
Its GI50 is 36.1 nM.

What about the GI50 (SK-MEL-2) of the same compound?
The GI50 was 617 nM.

And the GI50 (SK-MEL-5)?
The GI50 was 334 nM.

What about the GI50 (SK-MEL-28) of the same compound?
Its GI50 is 2830 nM.

And the GI50 (IGROV-1)?
The GI50 was 558 nM.

And the GI50 (OVCAR-5)?
The GI50 was 657 nM.

And the GI50 (NCI/ADR-RES)?
Its GI50 is 1980 nM.

And the GI50 (Hs-578T)?
The GI50 was 429 nM.

What about the GI50 (MDA-MB-468) of the same compound?
Its GI50 is 432 nM.

What about the GI50 (786-0) of the same compound?
The GI50 was 466 nM.

What about the GI50 (RXF 393) of the same compound?
Its GI50 is 301 nM.

What about the GI50 (SN12C) of the same compound?
The GI50 was 1250 nM.

And the GI50 (UO-31)?
Its GI50 is 1330 nM.

And the IC50 (Histone deacetylase 4)?
Its IC50 is over 10000 nM.

And the IC50 (Histone deacetylase 11)?
The IC50 was over 10000 nM.

And the Activity (HCT-116 [3])?
Its Activity is “Active”.

What about the half-life [4] of the same compound?
The half-life was 0.868 h.

What about the microsomal CLint [5] of the same compound?
The microsomal CLint was 50.3 µL/min/mg.

And the half-life at 100 µM [6]?
The half-life at 100 µM was 5.5 h.

What about the half-life at 100 µM [7] of the same compound?
The half-life at 100 µM was 7.15 h.

And the remaining at 2 h, 100 µM [8]?
The remaining at 2 h, 100 µM was 79.1%.

What about the remaining at 2 h, 100 µM [9] of the same compound?
The remaining at 2 h, 100 µM was 82.4%.

And the remaining at 2 h, 100 µM [10]?
Its remaining at 2 h, 100 µM is 85.7%.

And the Cmax [11]?
Its Cmax is 144 ng/mL.

What about the Tmax [12] of the same compound?
The Tmax was 4 h.

And the F [13]?
Its F is 7.3%.
